The values below come from ChEMBL document CHEMBL1127540, “Three-dimensional pharmacophores from binding data” (J Med Chem, 1994).

This experiment deals with Human immunodeficiency virus type 1 protease (Human immunodeficiency virus 1, UniProt Q72874). In words: Binding affinity to HIV-1 protease.

SMILES strings stand for the structures. Starred links: 1 amine or outer side, 2 acyl side, 3 side chain; linkers in the order of their positions; H or OH if unused. Non-standard residues stand in square brackets, D forms with d. Residues, ends and D or L forms follow the SMILES beside them. *: point of attachment. Hexanoyl(5S-NH,4S-OH,6-Ph) = O=C(CC[C@H](O)[C@H](Cc1ccccc1)N[*:1])[*:2]; X3 = O=C([C@@H]1CCC[C@@H]1[C@H](O)[C@H](Cc1ccccc1)N[*:1])[*:2]; X5 = O=C([C@H]1CCCN1C[C@H](O)[C@H](Cc1ccccc1)N[*:1])[*:2]; Ahppa(3S,4S) = O=C(C[C@H](O)[C@H](Cc1ccccc1)N[*:1])[*:2]; X2 = CC(C)C[C@H](N[*:1])[C@@H](O)CN1CCC[C@@H]1C(=O)[*:2]; X8 = O=C([C@H]1CCCN1C[C@H](Cc1ccccc1)N[*:1])[*:2]; X6 = O=C(CC[C@@H](O)[C@H](Cc1ccccc1)N[*:1])[*:2]; X7 = NC(=O)C[C@H](N[*:1])[C@@H](O)CC(=O)[*:2]; Sta = CC(C)C[C@H](N)[C@@H](O)CC(=O)O; Cbz = O=C(OCc1ccccc1)*; Boc = CC(C)(C)OC(=O)*; Lac = C[C@H](O)C(=O)O

Turning to `CC[C@H](C)[C@H](NC(=O)[C@H](C(C)C)[C@@H](O)[C@H](O)[C@H](CC(C)C)NC(=O)OCc1ccccc1)C(=O)NCc1ccccn1`, the inhibition constant Ki – broadly, the equilibrium dissociation constant of an inhibitor or competing ligand from its target – was 5.01 nM.

Turning to `CC[C@H](C)[C@H](NC(=O)[C@@H]1CCCN1C[C@@H](CC(=O)[C@H](CC(N)=O)NC(=O)[C@H](CCC(N)=O)NC(=O)[C@H](CO)NC(=O)[C@@H](N)C(C)C)Cc1ccccc1)C(=O)N[C@H](C(=O)O)C(C)C`, the Ki was 3550 nM.

`CC(C)(C)OC(=O)N[C@@H](Cc1ccccc1)[C@H](O)[C@H](O)[C@H](Cc1ccccc1)NC(=O)OC(C)(C)C` showed a Ki of 12 nM.

Turning to `CC(C)[C@H](NC(=O)OCc1ccccc1)C(=O)N[C@@H](Cc1ccccc1)C(=O)C(F)(F)CCc1ccccc1` (stereo in doubt; 17), the Ki was 5.01 nM.

As to `CC(C)[C@H](NC(=O)OCc1ccccc1)C(=O)N[C@@H](Cc1ccccc1)[C@H](O)[C@H](O)[C@H](Cc1ccccc1)NC(=O)[C@@H](NC(=O)OCc1ccccc1)C(C)C`, the Ki is 0.219 nM.

`COC(=O)[C@@H](NC(=O)[C@@H](NC(=O)C[C@H](O)[C@H](Cc1ccccc1)NC(=O)[C@H](C)NC(=O)[C@H](C)NC(=O)[C@H](CO)NC(=O)OC(C)(C)C)C(C)C)C(C)C` (Boc-SAA[Ahppa(3S,4S)]VV-OMe) had a Ki of 1200 nM.

For the compound `CC[C@H](C)[C@H](NC(=O)[C@H]1CCCN1C[C@H](O)[C@H](Cc1ccccc1)NC(=O)[C@H](CC(N)=O)NC(=O)[C@H](CC(C)C)NC(=O)[C@H](CO)NC(C)=O)C(=O)OC` (Ac-SLN[X5]I-OMe), the affinity, expressed as Ki, was 417 nM.

As to `CC(C)(C)OC(=O)N[C@@H](Cc1ccccc1)[C@@H](O)CC(Cc1ccc(OCC(=O)O)cc1)C(=O)N[C@@H]1c2ccccc2C[C@H]1O` (some centres not stated), the affinity corresponds to a Ki of 0.339 nM.

With `CC(C)(C)OC(=O)N[C@@H](Cc1ccccc1)[C@H](O)C(=O)N[C@@H](CCC(=O)O)C(=O)N[C@@H](Cc1ccccc1)C(=O)O`, affinity was put at a Ki of 3310 nM.

The compound `CC(C)(C)OC(=O)N[C@@H](Cc1ccccc1)[C@@H](O)[C@H](O)[C@H](Cc1ccccc1)NC(=O)OC(C)(C)C` had a Ki of 39.8 nM.

With `CC(C)(C)OC(=O)N[C@@H](Cc1ccccc1)[C@@H](O)C(=O)N[C@@H](CCC(=O)O)C(=O)N[C@@H](Cc1ccccc1)C(=O)O` (stereo in doubt; 76), the affinity corresponds to a Ki of 24000 nM.

The compound `CC(C)(C)OC(=O)N[C@@H](Cc1ccccc1)[C@@H](O)CC(=O)N[C@@H](CCC(=O)O)C(=O)N[C@@H](Cc1ccccc1)C(=O)O` showed a Ki of 63.1 nM.

`COC(=O)[C@@H](NC(=O)[C@@H](NC(=O)CC[C@H](O)[C@H](Cc1ccccc1)NC(=O)[C@H](Cc1ccccc1)NC(=O)[C@H](C)NC(=O)[C@H](C)NC(=O)OCc1ccccc1)C(C)C)C(C)C` (Cbz-AAF[Hexanoyl(5S-NH,4S-OH,6-Ph)]VV-OMe): the Ki was 47.9 nM.

Regarding `CC(C)C[C@H](NC(=O)[C@H](C)NC(=O)C[C@H](O)[C@H](CC(C)C)NC(=O)[C@@H](NC(=O)[C@@H](NC(=O)[C@H](C)O)C(C)C)C(C)C)[C@@H](O)CC(=O)O` (H-[Lac]VV[Sta]A[Sta]-OH), the Ki was 19100 nM.

As for `CC[C@H](C)[C@H](NC(=O)C[C@H](O)[C@H](CC(N)=O)NC(=O)[C@H](CCC(N)=O)NC(=O)[C@H](CO)NC(=O)[C@@H](N)C(C)C)C(=O)N[C@H](C(=O)O)C(C)C` (H-VSQ[X7]IV-OH), the Ki was 3720 nM.

The compound `COC(=O)[C@@H](NC(=O)[C@@H](NC(=O)CC[C@@H](O)[C@H](Cc1ccccc1)NC(=O)[C@H](C)NC(=O)[C@H](C)NC(=O)[C@@H](N)CO)C(C)C)C(C)C` (H-SAA[X6]VV-OMe) gave a Ki of 4900 nM.

As for `CCC(C)CNC(=O)[C@H](C(C)C)[C@@H](O)[C@H](O)[C@H](CC(C)C)NC(=O)OCc1ccccc1` (some centres not stated), the affinity, expressed as Ki, was 363 nM.

`CC(C)[C@H](NC(=O)OCc1ccccc1)C(=O)N[C@@H](Cc1ccccc1)C(=O)C(F)(F)CCc1ccccc1` (stereo in doubt; 12) gave a Ki of 2.69 nM.

Compound `CC(=O)N[C@@H](CO)C(=O)N[C@@H](CCC(N)=O)C(=O)N[C@@H](CC(N)=O)C(=O)N[C@@H](Cc1ccccc1)CN1CCC[C@@H]1C(=O)N[C@H](C(=O)N[C@H](C(N)=O)C(C)C)C(C)C` (stereo in doubt; 71) showed a Ki of 14100 nM.

`COC(=O)[C@@H](NC(=O)[C@@H](NC(=O)CC[C@H](O)[C@H](Cc1ccccc1)NC(=O)[C@H](C)NC(=O)[C@H](C)NC(=O)[C@@H](N)CO)C(C)C)C(C)C` (H-SAA[Hexanoyl(5S-NH,4S-OH,6-Ph)]VV-OMe) had an inhibition constant Ki of 61.7 nM.

Consider `CC[C@H](C)[C@H](NC(=O)[C@H]1CCCN1C[C@H](O)[C@H](CC(C)C)NC(=O)[C@H](CC(N)=O)NC(=O)[C@H](CC(C)C)NC(=O)[C@H](CO)NC(C)=O)C(=O)N[C@H](C(=O)OC)C(C)C` (Ac-SLN[X2]IV-OMe), for which the Ki was 11 nM.

For `COC(=O)[C@@H](NC(=O)[C@@H](NC(=O)CC[C@H](O)[C@H](Cc1ccccc1)NC(=O)[C@H](C)NC(=O)[C@H](C)N)C(C)C)C(C)C` (H-AA[Hexanoyl(5S-NH,4S-OH,6-Ph)]VV-OMe), the Ki is 18.2 nM.

Turning to `CC(C)(C)OC(=O)N[C@H](Cc1ccccc1)[C@@H](O)CC(=O)N[C@@H](CCC(=O)O)C(=O)N[C@@H](Cc1ccccc1)C(=O)O`, the Ki was 7080 nM.

In the case of `CC[C@H](C)[C@H](NC(=O)[C@H]1CCCN1C(=O)[C@H](CO)NC(=O)[C@@H](NC(=O)[C@@H]1CCCN1C(=O)[C@H](Cc1ccccc1)NC(=O)[C@H](CC(N)=O)NC(=O)[C@H](CC(C)C)NC(=O)[C@@H](NC(=O)[C@@H](N)CS)[C@@H](C)O)[C@@H](C)CC)C(=O)O`, the Ki is 70.8 nM.

`CC(=O)N[C@@H](CO)C(=O)N[C@@H](CCC(N)=O)C(=O)N[C@@H](CC(N)=O)C(=O)N[C@@H](Cc1ccccc1)CN1CCC[C@@H]1C(=O)N[C@H](C(=O)N[C@H](C(N)=O)C(C)C)C(C)C` (stereo in doubt; 70): the affinity corresponds to a Ki of 12900 nM.

`CC(=O)N[C@@H](CO)C(=O)N[C@@H](C)C(=O)N[C@@H](C)C(=O)N[C@@H](Cc1ccccc1)CN1CCC[C@@H]1C(=O)N[C@H](C(=O)N[C@H](C(N)=O)C(C)C)C(C)C` (Ac-SAA[X8]VV-NH2) gave a Ki of 38000 nM.

With `COC(=O)[C@@H](NC(=O)[C@@H](NC(=O)[C@@H]1CCC[C@@H]1[C@H](O)[C@H](Cc1ccccc1)NC(=O)[C@H](C)NC(=O)[C@H](C)NC(=O)[C@@H](N)CO)C(C)C)C(C)C` (H-SAA[X3]VV-OMe), the affinity, expressed as Ki, was 501 nM.
